Patent publication US12064503B2, “High-potency vitamin C and sugar alcohol topical formulations” (ICB (an ABC), LLC, priority 2020, dated 2024)

Assays:
[1] = tested on: skin; conditions: topical use of 4% HQ or 5% Vitamin C; cited from earlier work
[2] = tested on: skin; conditions: concentrations of 0.2%; clinical data from SEPPIC; cited from earlier work
[3] = Solubility in non-aqueous skin-compatible solvents; conditions: neat solvent
[4] = tested on: skin; conditions: cream containing 10% MAP; cited from earlier work
[5] = tested on: skin; conditions: topical; cited from earlier work

## O=C1O[C@H]([C@@H](O)CO)C(O)=C1O [AA, L-ascorbic acid]
[1]
  improvement: 62.5%

## madecassoside
[2]
  ability to reduce erythema (skin redness): desirable ability to reduce erythema

## CO[C@H]1CO[C@H]2[C@@H]1OC[C@H]2OC [Dimethyl isosorbide]
[3]
  ability of the solvent to solubilize ascorbic acid: very limited

## Oc1ccc(O)cc1 [HQ, hydroquinone]
[1]
  improvement: 93%
  side-effects: 68.7%

## O=C1O[C@H]([C@@H](O)CO)C([O-])=C1OP(=O)([O-])[O-].O=C1O[C@H]([C@@H](O)CO)C([O-])=C1OP(=O)([O-])[O-].[Mg+2].[Mg+2].[Mg+2] [MAP, magnesium ascorbyl phosphate]
[4]
  brighten/lighten the appearance of the skin: effectively brighten/lighten

## CC(C)(CO)[C@@H](O)C(=O)NCCCO [Panthenol]
[5]
  concentration at which inhibition of transepidermal water loss is apparent: ≥ 1%
